In ChEMBL document CHEMBL6087426, “Design, synthesis and bioactivity evaluation of cinnamic acid derivatives as potential anti-inflammatory agents against LPS-induced acute lung injury” (Bioorg Med Chem Lett, 2025) one finds Activity, inhibition and IC50 data, which are given here for 16 compounds.

The source made the active and inactive calls. No cut-off for these calls is given here.

Series [1] has as its system Mus musculus. As to the kind of experiment: Anti-inflammatory activity in C57BL/6 mouse assessed as decrease in LPS-induced IL-6 level in BALF at 20 mg/kg pretreated for 30 mins followed by LPS stimulation for 6 hrs by ELISA. Particulars: time 6.5 hrs. It is filed as functional, organism-based. A general note: An ELISA detects its analyte on a solid surface through an enzyme-linked reagent.

Series [2] relates to Mus musculus. As to the kind of experiment: Anti-inflammatory activity in C57BL/6 mouse assessed as decrease in LPS-induced TNF-alpha level in serum at 20 mg/kg pretreated for 30 mins followed by LPS stimulation for 6 hrs by ELISA. It is filed as functional, organism-based. Particulars: time 6.5 hrs.
Series [3] has as its system Mus musculus. Description: Anti-inflammatory activity in C57BL/6 mouse assessed as decrease in LPS-induced wet to dry ratio in lung tissue at 20 mg/kg pretreated for 30 mins followed by LPS stimulation for 6 hrs. Type of series: functional, organism-based. As to conditions: time 6.5 hrs.
Series [4] has as its system Mus musculus. Description: Anti-inflammatory activity in C57BL/6 mouse assessed as decrease in LPS-induced total protein level in BALF at 20 mg/kg pretreated for 30 mins followed by LPS stimulation for 6 hrs. It is filed as functional, organism-based. Particulars: time 6.5 hrs.
Series [5] concerns Mus musculus. Description: Anti-inflammatory activity in C57BL/6 mouse assessed as decrease in LPS-induced IL-6 level in serum at 20 mg/kg pretreated for 30 mins followed by LPS stimulation for 6 hrs by ELISA. As to conditions: time 6.5 hrs. It is filed as functional, organism-based.
The subject of series [6] is Mus musculus. As to the kind of experiment: Anti-inflammatory activity in C57BL/6 mouse assessed as decrease in LPS-induced macrophage infiltration in lung tissue at 20 mg/kg pretreated for 30 mins followed by LPS stimulation for 6 hrs by IHC analysis. It is filed as functional, organism-based. Particulars: time 6.5 hrs.
The test system of series [7] is Mus musculus. As to the kind of experiment: Anti-inflammatory activity in C57BL/6 mouse assessed as decrease in LPS-induced TNF-alpha level in BALF at 20 mg/kg pretreated for 30 mins followed by LPS stimulation for 6 hrs by ELISA. Type of series: functional, organism-based. Particulars: time 6.5 hrs.
In series [8] the test system is J774.A1. Description: Anti-inflammatory activity against mouse J774.A1 cells assessed as inhibition of LPS-induced IL-6 production at 10 uM preincubated for 30 mins followed by LPS stimulation for 24 hrs by ELISA relative to control. Type of series: functional. As to conditions: time 24.5 hrs.
Series [9] concerns J774.A1. Description: Cytotoxicity against mouse J774.A1 cells assessed as cell survival at 10 uM by MTT assay. It is filed as toxicity, cell-based. Particulars: j774.a1, 10 µM.
The test system of series [10] is J774.A1. Description: Anti-inflammatory activity against mouse J774.A1 cells assessed as inhibition of LPS-induced IL-6 production preincubated for 30 mins followed by LPS stimulation for 24 hrs by ELISA. It is filed as functional, cell-based.
Series [11] deals with Mus musculus. As to the kind of experiment: Anti-inflammatory activity in C57BL/6 mouse assessed as decrease in LPS-induced thickened alveolar septa in lung tissue at 20 mg/kg pretreated for 30 mins followed by LPS stimulation for 6 hrs by H and E staining based analysis. It is filed as functional, organism-based. As to conditions: time 6.5 hrs.
The test system of series [12] is Mus musculus. As to the kind of experiment: Anti-inflammatory activity in C57BL/6 mouse assessed as decrease in LPS-induced destruction in lung tissue at 20 mg/kg pretreated for 30 mins followed by LPS stimulation for 6 hrs by H and E staining based analysis. Particulars: time 6.5 hrs. It is filed as functional, organism-based.
For series [13], the system named is Mus musculus. As to the kind of experiment: Anti-inflammatory activity in C57BL/6 mouse assessed as decrease in LPS-induced inflammatory infiltration in lung tissue at 20 mg/kg pretreated for 30 mins followed by LPS stimulation for 6 hrs by H and E staining based analysis. Type of series: functional, organism-based. As to conditions: time 6.5 hrs.
In series [14] the test system is Mus musculus. Description: Anti-inflammatory activity in C57BL/6 mouse assessed as decrease in LPS-induced pulmonary congestion in lung tissue at 20 mg/kg pretreated for 30 mins followed by LPS stimulation for 6 hrs by H and E staining based analysis. As to conditions: time 6.5 hrs. It is filed as functional, organism-based.
The subject of series [15] is Mus musculus. Description: Anti-inflammatory activity in C57BL/6 mouse assessed as decrease in LPS-induced interstitial edema in lung tissue at 20 mg/kg pretreated for 30 mins followed by LPS stimulation for 6 hrs by H and E staining based analysis. Type of series: functional, organism-based. As to conditions: time 6.5 hrs.

For `C[C@@H]1C[C@H]2[C@@H]3CCC4=CC(=O)C=C[C@]4(C)[C@@]3(F)[C@@H](O)C[C@]2(C)[C@@]1(O)C(=O)CO`, the outcome in series [1], in [2], in [3], in [4], in series [5] and in series [6] was Active. For the same compound, the outcome in [7] was Active.
With `COc1ccc(-c2csc(NC(=O)c3ccc(F)cc3Cl)n2)cc1OC`, the inhibition (commonly the share of the control response that was lost under treatment) at 10 µM in series [8] was found to be 23.3%.
In the case of `COc1cc(-c2cnc(NC(=O)/C=C/c3ccccc3)s2)cc(OC)c1OC`, the Activity entry in series [9] is given as “Non-toxic”. Moreover, the inhibition at 10 µM in series [8] is 72.7%.
Turning to `COc1ccc(-c2csc(NC(=O)c3ccccc3C)n2)cc1OC`, in series [8], the inhibition at 10 µM amounted to 36.8%.
In the case of `COc1ccc(-c2csc(NC(=O)c3ccc(Cl)c([N+](=O)[O-])c3)n2)cc1OC`, in series [9], the Activity result is recorded as “Toxic”. In addition, in [8], the inhibition at 10 µM amounted to 64.1%.
Take `COc1ccc(-c2csc(NC(=O)c3cccc(Br)c3)n2)cc1OC`: the inhibition at 10 µM in series [8] was 19.8%.
`COc1ccc(-c2csc(NC(=O)c3ccc(C)cc3)n2)cc1OC`: the inhibition at 10 µM in series [8] came out at 38.8%.
Still for that read-out and setting: under `COc1ccc(-c2cnc(NC(=O)/C=C/c3ccccc3)s2)cc1OC` stands 53%.
Still for that read-out and setting: under `COc1ccc(-c2csc(NC(=O)c3ccc(F)cc3)n2)cc1OC` stands 51.2%; under `O=C(O)/C=C/c1ccccc1` [CINNAMIC ACID], 26.4%.
As to `O=C(/C=C/c1ccccc1)Nc1nc2ccccc2s1`, the result in series [1], in [11], in series [2], in series [3], in [4] and in [12] was Active. The result in series [5], in series [13], in [6], in series [7], in series [14] and in series [15] was Active. The half-maximal inhibitory concentration (IC50) – broadly, the point on the concentration scale where inhibition reaches its midpoint – in [10] is 1.06 µM. The inhibition result in series [10] (dose 1.25-10 µM, time 24.5 hrs) is “Dose-dependent-effect”. The Activity result in [9] is on record as “Non-toxic”. Also, the inhibition at 10 µM in series [8] was 79.6%.
For `O=C(/C=C/c1ccccc1)Nc1ncc(-c2cccc([N+](=O)[O-])c2)s1`, in series [8], the inhibition at 10 µM came out at 36.5%.
With `O=C(/C=C/c1ccccc1)Nc1ncc(-c2ccc(C3CCCCC3)cc2)s1`, the inhibition at 10 µM in series [8] is 51.9%.
Regarding `COc1ccc(-c2csc(NC(=O)c3cccc(F)c3)n2)cc1OC`, the inhibition at 10 µM in series [8] was 19.5%.
On to `O=C(/C=C/c1ccccc1)Nc1ncc(-c2ccc(Br)cc2)s1`, for which the inhibition at 10 µM in series [8] came to 21.6%.
Turning to `CCOc1ccc(-c2cnc(NC(=O)/C=C/c3ccccc3)s2)cc1`, the inhibition at 10 µM in series [8] was determined as 37.6%.
